In patent US20030027791A1, “Composition and method for reducing adverse interactions between phenothiazine derivatives and plasma using cyclodextrins” (Wyeth, priority 2001, published 2003):

Experiments:
[1] = in vivo; cited from earlier work
[2] = Precipitate formation when promethazine hydrochloride preparation is mixed with plasma in vitro; type: physicochemical; conditions: mixing ratio not stated
Text: Without being bound by any particular theory, it is believed that this precipitate formation could be related to the venous thrombosis found at the injection site, as well as the cause of other local adverse reactions involving promethazine hydrochloride injection. […] With a composition according to one or more of the embodiments set forth herein, it is expected that a promethazine hydrochloride solution given by the routes of i.v. and i.m. (intramuscular) injection would have fewer incidences of irritation and other adverse reactions at the site of injection.

[3] = intravenous use; cited from earlier work

- Precipitate formation when solution is mixed with plasma in vitro [2]: precipitates form immediately
Compound: CC(CN1c2ccccc2Sc2ccccc21)N(C)C.Cl (racemic) [promethazine hydrochloride, 10H-Phenothiazine-10-ethanamine, N,N, α-trimethyl-, monohydrochloride, (±)-]
- Plasma creatine kinase levels [1]: raise plasma creatine kinase levels
- Adverse reactions at the injection site [3]: some incidents of venous thrombosis at the injection site have been encountered
